Laboratory results taken from patent publication US7629318B2, “Immunosuppressant compounds, methods and uses related thereto” (priority 2002, dated 2009).
Square brackets hold non-standard residues; d marks the D form. Peptide text beside a SMILES is read from it. * marks the point of attachment. Gly(1-amidinopiperidin-4-yl) = N=C(N)N1CCC([C@H](N)C(=O)O)CC1; Tetrahydroisoquinolin(2-yl) = c1ccc2c(c1)CCN(*)C2; Tic = O=C(O)[C@@H]1Cc2ccccc2CN1; Cha = N[C@@H](CC1CCCCC1)C(=O)O; X4 = OCCOCCN(CCc1ccccc1)*; Nle = CCCC[C@H](N)C(=O)O; X2 = OCCOCCN(Cc1ccccc1)*; X5 = OCCN(Cc1ccccc1)*

Assays:
[1] = biological target: DR4Dw4 (DRA1*0101 DRB1*0401) (Homo sapiens, UniProt P01903+P01911, A100K/A169T/F76Y/I96L/K127E/L162R/M171V/N62H/P40V/Q125Y/R42H/S133A/S149N/S66Y/V115G/V209L/W38E); assay: Competitive binding to MHC-II protein DR4Dw4
Procedure: (§1) Interaction mixtures lacking the peptidomimetic compound and both peptide mimetic compound and MHC-II were used as positive and negative controls, respectively. All interaction mixtures were set up in duplicates and were incubated for 16 hours at room temperature.
(§2) After washing with PBS, 60 μl of the MHC-II-compound interaction mixtures were transferred from the interaction plate to the appropriate wells of the capture plate and incubated for 2 h at 4° C. The wells were washed six times with 200 μl/well of cooled (4 to 8° C.) 1×DELFIA wash (Wallac-ADL-GmbH, Freiburg), incubated with 100 μl of cooled Europium-streptavidin conjugate (Wallac-ADL-GmbH, Freiburg; diluted 1/1000 with DELFIA assay buffer) for 30 minutes at 4° C., again washed six times with cooled 1×DELFIA wash and, finally, incubated with 200 μl cooled DELFIA enhancement solution (Wallac-ADL-GmbH, Freiburg) for one hour at room temperature before reading the time-resolved europium fluorescence at λex Eu^3+: 340 nm and λem Eu^3+: 613 (615) nm (Wallac Victor^2 1420 Multilabel Counter, Wallac-ADL-GmbH, Freiburg).

[2] = biological target: DR1 (DRA1*0101 DRB1*0101) (Homo sapiens, UniProt P01903+P01911, A100R/D57E/F55L/F60I/F76Y/I96L/L162R/M171V/P40L/Q125E/R42F/V115G/Y59C); assay: Competitive binding to MHC-II protein DR1; conditions: Protein binding IC50 (nM) 0101, 0101
Procedure: as §1, §2

[3] = biological target: DR4Dw14 (DRA1*0101 DRB1*0404) (Homo sapiens, UniProt P01903+P01911, A100R/A169T/F76Y/I96L/K127E/L162R/M171V/N62H/P40V/Q125Y/R42H/S133A/S149N/S66Y/V209L/W38E); assay: Competitive binding to MHC-II protein DR4Dw14; conditions: 0404; read-out: Protein binding IC50 (nM) 0404
Procedure: as §1, §2

[4] = Stability of compounds in rat blood plasma; format: in vitro ADME
Procedure: (§3) The stability of the peptidomimetic compounds was determined in rat (Charles River Laboratories, Sulzfeld), mouse (Charles River Laboratories, Sulzfeld) and human (Bayerisches Rotes Kreuz, München) blood plasma (E. R. Garrett and M. R. Gardner, J Pharmaceutical Sciences 71 (1982) 14-25).
(§4) Compound stock solutions were diluted into blood plasma to give a final compound concentration of 5 μM and the mixtures were incubated at 37° C. At 0, 6 and 24 hours 1 ml samples were drawn and the plasma proteins were precipitated by the addition of 3 ml acetonitrile p.a. and whirlmixing. The precipitate was pelleted by centrifugation at 2000 g for 5 minutes. The supernatant was evaporated off to dryness and the residue was reconstituted in 400 μl 50% acetonitrile, 0.1% TFA in water.
(§5) PBS controls were prepared for unstable compounds accordingly.

[5] = Stability of compounds in mouse blood plasma; format: in vitro ADME
Procedure: as §3, §4, §5

[6] = Stability of compounds in human blood plasma; format: in vitro ADME
Procedure: as §3, §4, §5

[7] = biological target: Cathepsin D (EC 3.4.23.5 from bovine spleen) (Bos taurus, UniProt P80209)
Procedure: The stability of the peptidomimetic compounds towards lysosomal degradation was examined by incubation with Cathepsin B1 (EC 3.4.22.1 from bovine spleen; Sigma-Aldrich, Taufkirchen; dissolved at 10000 U/l in ddH2O) and D (EC 3.4.23.5 from bovine spleen; Sigma-Aldrich, Taufkirchen; dissolved at 10000 U/l in ddH2O) for four hours at 37° C. using a compound concentration of 50 μM and an enzyme/substrate ratio of 0.4 U/μmol. The samples contained 25 ppm 4-isopropyl benzyl alcohol (IPBA; Sigma-Aldrich, Taufkirchen) as internal standard.
Assay buffer was prepared by adding 35 μl of a 1% IPBA in DMSO solution and 28 μl of a 10000 U/l Cathepsin B1 or Cathepsin D stock solution to 14 ml of 100 mM sodium acetate, 1 mM EDTA, 1 mM DTT, pH 5.00 or 100 mM sodium acetate, pH 4.50, respectively. 8.8 μl of a 5 mM (or 4.4 μl of a 10 mM) compound stock solution (in 10% DMSO/water) were placed into a 1.5 ml Eppendorf tube. The reaction was started by adding 875 μl fully supplemented assay buffer to each tube, whirlmixing and incubation at 37° C. At 0 and 4 hours 400 μl samples were taken and the enzyme was inactivated by addition of 40 μl […] TFA aq. The samples were kept frozen at −20° C. until analysis by RP-HPLC (200 μl injection volume; Nucleosil 100-5 C18, 12.5×4.6 cm; Gradient: 20-50% acetonitrile in 30 min).
Compounds co-eluting with the internal standard during RP-HPLC analysis were tested without the standard as Example 16.

[8] = tested on: T-cell proliferation, lymph node cells of chimeric 0401-IE transgenic mice; conditions: DR4-LN; for Immunsupressive assays DR4-LN (Max) % Inhibition: maximal inhibition; for IC50: read-out: Immunsupressive assays DR4-LN (IC50)
Procedure: The compounds were tested as follows to inhibit the proliferative T cell response of antigen-primed lymph node cells from mice carrying a chimeric mouse-human class II transgene with an RA-associated peptide binding site, and lack murine class II molecules (Muller et al., 1990; Woods et al., 1994; Current Protocols in Immunology, Vol. 2, 7.21; Ito et al., 1996). Here, the immunization takes place in vivo, but the inhibition and readout are ex vivo. […] These mice lack murine MHC class II, and thus, all Th responses are channelled through a single human RA-associated MHC class II molecule (Ito et al. 1996). These transgenic mice represent a model for testing human class II antagonists.
1.5×10^5 cells are incubated in 0.2 ml wells of 96-well tissue culture plates in the presence of ovalbumin (30 μg per well—half-maximal stimulatory concentration) and a dilution series of the compound under test (from around 0.1 to 200 uM) in serum free HL-1 medium containing 2 mM L-glutamine and 0.1 g/l Kanamycin for three days. Antigen specific proliferation is measured by 3H-methyl-thymidine (1 μCi/well) incorporation during the last 16 h of culture (Falcioni et al., 1999). Cells are harvested, and 3H incorporation measured using a scintillation counter (TopCount, Wallac Finland).

[9] = biological target: Cathepsin B1 (EC 3.4.22.1 from bovine spleen) (Bos taurus, UniProt P07688); conditions: Cathepsin B, 4 h
[10] = tested on: T-cell proliferation, DR14-LN; conditions: for Immunsupressive assays DR14-LN (Max) % Inhibition: maximal inhibition; for IC50: read-out: Immunsupressive assays DR14-LN (IC50)

| Structure (SMILES) | IC50 [1] [µM] | IC50 [2] [nM] | IC50 [3] [nM] | Stability (Arbitrary units) Rat 6 h [4] [Arbitrary units] | Stability (Arbitrary units) Rat 24 h [4] [Arbitrary units] | Stability (Arbitrary units) Mouse 6 h [5] [Arbitrary units] | Stability (Arbitrary units) Mouse 24 h [5] [Arbitrary units] | Stability (Arbitrary units) Human 6 h [6] [Arbitrary units] | Stability (Arbitrary units) Human 24 h [6] [Arbitrary units] | Stability (Arbitrary units) Cath D 4 h [7] [Arbitrary units] | Immunsupressive assays DR4-LN (Max) % Inhibition [8] [%] | IC50 [8] [µM] | Stability (Arbitrary units) Cath B 4 h [9] [Arbitrary units] | Immunsupressive assays DR14-LN (Max) % Inhibition [10] [%] | IC50 [10] [µM] |
| --- | --- | --- | --- | --- | --- | --- | --- | --- | --- | --- | --- | --- | --- | --- | --- |
| CCCC[C@H](NC(=O)[C@@H]1Cc2ccccc2CN1C(=O)[C@@H](NC(=O)[C@H](CC1CCCCC1)NC(C)=O)C1CCN(C(=N)N)CC1)C(=O)N(CCO)Cc1ccccc1 [Compound P78, Ac-Cha-Gpg-Tic-Nle-N(Bn)CH2CH2OH] (Ac-[Cha][Gly(1-amidinopiperidin-4-yl)][Tic][Nle]-X5) | 2.6 | 430 | 1200 | 184 | 107 | 90 | 113 | 73 | 130 | 108 | 97 | 36 | 100 | 100 | 36 |
| CCCC[C@H](NC(=O)[C@@H]1Cc2ccccc2CN1C(=O)[C@@H](NC(=O)[C@H](CC1CCCCC1)NC(C)=O)C1CCN(C(=N)N)CC1)C(=O)N1CCc2ccccc2C1 [Compound P77, Ac-Cha-Gpg-Tic-Nle-tetrahydroisoquinoline] (Ac-[Cha][Gly(1-amidinopiperidin-4-yl)][Tic][Nle]-{Tetrahydroisoquinolin(2-yl)}) | 8.7 | 1900 | 3600 | 129 | 57 | 141 | 181 | 111 | 114 | 95 | 100 | 10 | 107 | 99 | 14 |
| CCCC[C@H](NC(=O)[C@@H]1Cc2ccccc2CN1C(=O)[C@H](CCCNC(=N)N)NC(=O)[C@H](CC1CCCCC1)NC(C)=O)C(=O)N(CCOCCO)CCc1ccccc1 [Compound P88] (Ac-[Cha]R[Tic][Nle]-X4) | 10 | 2000 | 5700 | 77 | 55 | 125 | 128 | 133 | 123 | 101 |  | 105 | 94 |  | 37 |
| CCCC[C@H](NC(=O)[C@@H]1Cc2ccccc2CN1C(=O)[C@H](CCCNC(=N)N)NC(=O)[C@H](CC1CCCCC1)NC(C)=O)C(=O)N(CCOCCO)Cc1ccccc1 [Compound P98, Ac-Cha-Arg-Tic-Nle-N(Bn)CH2CH2OCH2CH2OH] (Ac-[Cha]R[Tic][Nle]-X2) | 4.7 | 640 | 1300 | 71 | 60 | 87 | 54 | 116 | 121 | 104 | 67 | 69 | 104 |  | > 200 |
